Tests used:
Test in all cases: relative viability (nuclei count vs DMSO), 5 days (fraction); higher = more cells survive
[1] = compound: O=C(C[C@H]1NCCC[C@@H]1O)Cn1cnc2cc(Br)c(Cl)cc2c1=O (racemic) [Halofuginone] + CCNC(=O)c1noc(-c2cc(C(C)C)c(O)cc2O)c1-c1ccc(CN2CCOCC2)cc1 [Luminespib] (partner 0.01 µM)
Method in brief: (§1)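 Lung cancer cell lines in 1536-well plates got either a single drug or a fixed anchor-drug dose together with five library-drug doses (not always all listed) in √10 steps, by pin tool, on the day after seeding. Nuclei were counted after 5 days, and relative viability is the treated-to-vehicle ratio of nuclei counts. Values are medians of duplicate plates.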

[2] = compound: Nc1ncn([C@H]2C[C@H](O)[C@@H](CO)O2)c(=O)n1 [Decitabine] + O=C(CCCCCCC(=O)Nc1ccccc1)NO [Vorinostat] (partner 1 µM)
Method in brief: as §1

[3] = compound: COc1cc2c(Oc3ccc4[nH]c(C)cc4c3F)ncnc2cc1OCCCN1CCCC1 [Cediranib] + CS(=O)(=O)N1CCN(Cc2cc3nc(-c4cccc5[nH]ncc45)nc(N4CCOCC4)c3s2)CC1 [Pictilisib] (partner 1 µM)
Method in brief: as §1

[4] = compound: COc1cc2c(Oc3ccc4[nH]c(C)cc4c3F)ncnc2cc1OCCCN1CCCC1 [Cediranib] + Cc1nc(Nc2ncc(C(=O)Nc3c(C)cccc3Cl)s2)cc(N2CCN(CCO)CC2)n1 [Dasatinib] (partner 0.075 µM)
Method in brief: as §1

## UMC-11
[1]; first compound 0.001 µM
  relative viability: 1.08
[1]; first compound 0.003162 µM
  relative viability: 1.05
[1]; first compound 0.01 µM
  relative viability: 1.02
[1]; first compound 0.03162 µM
  relative viability: 0.703
[1]; first compound 0.1 µM
  relative viability: 0.412
[2]; first compound 0.04 µM
  relative viability: 0.269
[2]; first compound 0.1265 µM
  relative viability: 0.263
[2]; first compound 0.4 µM
  relative viability: 0.236
[2]; first compound 1.265 µM
  relative viability: 0.19
[2]; first compound 4 µM
  relative viability: 0.193
[3]; first compound 0.04 µM
  relative viability: 1.01
[3]; first compound 0.1265 µM
  relative viability: 0.316
[3]; first compound 0.4 µM
  relative viability: 0.707
[3]; first compound 1.265 µM
  relative viability: 0.466
[3]; first compound 4 µM
  relative viability: 0.862
[4]; first compound 0.04 µM
  relative viability: 0.5
[4]; first compound 0.4 µM
  relative viability: 0.426
[4]; first compound 4 µM
  relative viability: 0.539

From the supplement of paper PMC10307832
